Tests used:
T47D cells [1] = assay: Internalization and cluster formation, 3D spheroids; type: cell-based; conditions: 3D Spheroids (SD55); 10 ug/mL
Procedure: (§1) For 2D monolayer assays, T47D cells were plated on collagen-coated 96-well optical plates (Greiner, Cat #655936) at 25,000 cells/well in complete media and incubated overnight at 37° C. in 5% CO2. For 3D spheroids, cells were plated in low adhesion 96-well plates (Corning #4515) at 10,000 cells/well and incubated for 72 hours. The day of the assay, cells were incubated for 30 minutes with cold (4° C.) media containing 10 ug/mL of Alexa647 (Thermo, Cat #A37573) labeled antibodies. After, cells were washed twice (5 minutes, 100 ul, 4° C., complete medium) and incubated in complete media at 37° C. for 60 minutes. Cells were incubated for 30 minutes with cold (4° C.) media containing 4 ug/mL of Alexa488 anti-Human Fab (Jackson #109-547-003). […] After, the solution was replaced with PBS. Images were acquired with a Zeiss Spinning Disc Confocal Microscope and analyzed using Zeiss Zen Blue software. Quantification of the number of intracellular vesicles and surface clusters was performed in single confocal sections of representative images.

T47D cells [2] = assay: Internalization and cluster formation, 2D monolayers; type: cell-based; conditions: 2D monolayers (SD53); 10 ug/mL
Procedure: as §1

hErbB2-MMH = molecular target: T1, hErbB2-MMH (Homo sapiens, UniProt P04626); assay: Surface plasmon resonance binding kinetics at 25° C.
T1 construct: myc-myc-hexahistidine (C); made in house
Procedure: Equilibrium dissociation constants (KD values) for hErbB2.mmh binding to anti-HER2×HER2 antibodies conjugated with either M830 or M1 were determined using a real-time surface plasmon resonance biosensor assay on a MASS-2 instrument. The MASS-2 sensor surface was derivatized by amine coupling with a monoclonal mouse anti-human Fc antibody (REGN2567) to capture anti-HER2×HER2 ADC and parent unmodified antibodies expressed with human constant regions. […] Human hErbB2 was prepared in-house expressing a C-terminal myc-myc-hexahistidine tag (hErbB2-MMH). […] Association of hErbB2-MMH to each of the captured ADCs and monoclonal antibodies was monitored for 3 minutes. Subsequently, hErbB2-MMH dissociation was monitored for 10 minutes in HBS-EP running buffer. Anti-human Fc surface was regenerated by a brief injection of 20 mM H3PO4. All binding kinetic experiments were performed at 25° C.
Kinetic association (ka) and dissociation (kd) rate constants were determined by fitting the real-time sensorgrams to a 1:1 binding model using Scrubber 2.0c curve fitting software. All sensorgrams were double referenced by subtracting buffer injection sensorgram signal from the corresponding analyte sensorgram, thereby removing artifacts caused by dissociation of the antibody from the capture surface. Binding dissociation equilibrium constants (KD) and dissociative half-lives (t½) were calculated from the kinetic rate constants as: […]

- Antigen Bound (hErbB2-MMH): 177.8 RU
- ka (hErbB2-MMH): 290000 M⁻¹ s⁻¹
- kd (hErbB2-MMH): ≤1e-05 s⁻¹
Substance: CompAb2: parental HER2×HER2 bispecific antibody of MEDI4276 (SEQ ID NO: 52 and 53) [reference compound]
- Cluster % (T47D cells [1]): 41%
- Internalized Vesicles % (T47D cells [1]): 100%
- Cluster % (T47D cells [2]): 28%
- Internalized Vesicles % (T47D cells [2]): 100%

— US12583939B2, “Bispecific antigen binding molecules that bind HER2, and methods of use thereof” (Regeneron Pharmaceuticals, Inc., priority 2020, dated 2026)
